In patent US11932598B2, “Polyacyloxymethyl-4,4′-acyloxybiphenyl compound” (HONSHU CHEMICAL INDUSTRY CO., LTD., priority 2018, dated 2024):

What was measured:
[1] = Solvent solubility evaluation test (amount dissolved in 100 g of cyclohexanone); assay type: physicochemical
Procedure: <Solvent Solubility Evaluation Test>
The 4,4′-Diacetoxy-3,3′,5,5′-tetra(acetoxymethyl)biphenyl obtained in Example 1 (hereinafter referred to as “Present Compound A”) and 4,4′-di(acetoxy)biphenyl (hereinafter referred to as “Comparative Compound a”) were measured for the amounts dissolved in 100 g of cyclohexanone at 40° C. and 60° C. (hereinunder referred to as “solubility (g)”).

[2] = amount dissolved in 100 g of cyclohexanone at 40° C.
[3] = amount dissolved in 100 g of cyclohexanone at 60° C.

CC(=O)Oc1ccc(-c2ccc(OC(C)=O)cc2)cc1 [Comparative Compound a, 4,4′-di(acetoxy)biphenyl, reference compound]
Solubility [1, 2]: 9.0 g | Solubility [1, 3]: 12.8 g

CC(=O)OCc1cc(-c2cc(COC(C)=O)c(OC(C)=O)c(COC(C)=O)c2)cc(COC(C)=O)c1OC(C)=O [Present Compound A, 4,4′-Diacetoxy-3,3′,5,5′-tetra(acetoxymethyl)biphenyl]
Solubility [1, 2]: 39.4 g | Solubility [1, 3]: 89.8 g | melting point: 116.2 °C
